ChEMBL document CHEMBL1129914, “Synthesis and inhibitory effect of a sialyl lewis X-acrylamide homopolymer at preventing cell adhesion” (Bioorg Med Chem Lett, 1997)

Experiments:
E-selectin = molecular target: T1, E-selectin (Homo sapiens, UniProt P16581); experiment: Tested in vitro to inhibit cell adhesion of HL-60 cells to recombinant human soluble Selectin E; format: cell-based
T1 sequence (P16581 whole entry): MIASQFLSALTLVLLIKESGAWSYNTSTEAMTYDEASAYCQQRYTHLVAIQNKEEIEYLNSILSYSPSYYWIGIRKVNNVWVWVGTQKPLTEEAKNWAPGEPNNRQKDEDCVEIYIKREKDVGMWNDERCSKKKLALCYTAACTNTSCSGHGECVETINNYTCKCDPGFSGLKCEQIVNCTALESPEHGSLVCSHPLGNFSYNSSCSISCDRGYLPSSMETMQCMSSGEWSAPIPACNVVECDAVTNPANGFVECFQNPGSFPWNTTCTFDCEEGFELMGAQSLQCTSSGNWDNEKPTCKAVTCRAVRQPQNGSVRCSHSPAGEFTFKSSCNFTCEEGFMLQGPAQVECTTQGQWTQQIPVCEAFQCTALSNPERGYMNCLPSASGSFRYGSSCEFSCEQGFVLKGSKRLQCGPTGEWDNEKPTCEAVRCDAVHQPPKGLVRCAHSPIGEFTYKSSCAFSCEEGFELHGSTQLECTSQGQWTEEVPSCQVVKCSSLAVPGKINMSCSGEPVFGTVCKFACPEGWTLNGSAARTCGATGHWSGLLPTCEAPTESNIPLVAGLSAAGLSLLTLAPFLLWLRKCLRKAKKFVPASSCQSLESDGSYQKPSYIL

Mus musculus = experiment: Tested in vivo for the inhibition of LTA -induced neutrophil accumulation into pleural cavity of mice at a dose of 30 mg/kg; format: functional

For `CCO[C@@H]1O[C@@H](CO)[C@@H](O[C@@H]2O[C@@H](CO)[C@H](O)[C@H](O[C@]3(C(=O)O)C[C@@H](O)[C@@H](NC(C)=O)[C@H]([C@H](O)[C@H](O)CO)O3)[C@@H]2O)[C@H](O[C@@H]2O[C@@H](C)[C@@H](O)[C@H](O)[C@@H]2O)[C@@H]1NC(C)=O`, the IC50 (E-selectin) was 1.5 mg/mL and the inhibition in vivo at 30 mg/kg (Mus musculus) was 38%.
Work on `C=CC(=O)NCCCCCCO[C@@H]1O[C@@H](CO)[C@@H](O[C@@H]2O[C@@H](CO)[C@H](O)[C@H](O[C@]3(C(=O)[O-])C[C@@H](O)[C@@H](NC(C)=O)[C@H]([C@H](O)[C@H](O)CO)O3)[C@@H]2O)[C@H](O[C@@H]2O[C@@H](C)[C@@H](O)[C@H](O)[C@@H]2O)[C@@H]1NC(=O)c1ccc2ccccc2c1.[Na+]` yielded an IC50 (E-selectin) of 0.1 mg/mL and an inhibition in vivo at 30 mg/kg (Mus musculus) of 35%.
